Activity and Ki data for 25 compounds are collected here from ChEMBL document CHEMBL4680105, “Discovery of Benzenesulfonamide Derivatives as Carbonic Anhydrase Inhibitors with Effective Anticonvulsant Action: Design, Synthesis, and Pharmacological Evaluation” (J Med Chem, 2018).

One test has as its system Mus musculus. Put plainly: Anticonvulsant activity in Swiss Albino mouse assessed as protection against seizure at 30 mg/kg, ip measured after 0.5 hrs by sc-PTZ seizure test relative to control. Format: functional.
Settings: not given
Take `NS(=O)(=O)c1ccc(CNC(=O)CN2CCN(C(=O)OCc3ccccc3)CC2)cc1`: the Activity came out at 67%.
The same measure, in the same setting: under `NS(=O)(=O)c1ccc(CNC(=O)CN2CCN(c3ncccn3)CC2)cc1` stands 33%.

The target in another test is Carbonic anhydrase 9 (Homo sapiens, UniProt Q16790). Put plainly: Inhibition of recombinant human carbonic anhydrase 9 by stopped-flow CO2 hydration assay.
Settings: not given
What is called Ki is a measure of affinity in units of concentration, obtained from inhibition or displacement. As to `COc1ccc(N2CCN(CC(=O)NCc3ccc(S(N)(=O)=O)cc3)CC2)cc1`, the Ki was 1100 nM.
With `NS(=O)(=O)c1ccc(CNC(=O)CN2CCN(C(c3ccccc3)c3ccccc3)CC2)cc1`, the Ki came out at 1680 nM.
The same measure, in the same setting: under `NS(=O)(=O)c1ccc(CNC(=O)CCN2CCN(c3ccccn3)CC2)cc1` stands 162 nM; under `NS(=O)(=O)c1ccc(CNC(=O)CN2CCN(c3ccc(Cl)cc3)CC2)cc1`, 1200 nM; under `NS(=O)(=O)c1ccc(CNC(=O)CN2CCN(C(=O)OCc3ccccc3)CC2)cc1`, 1630 nM.
Still for that read-out and setting: under `NS(=O)(=O)c1ccc(CNC(=O)CCN2CCN(C(=O)OCc3ccccc3)CC2)cc1` stands 257 nM.
Same read-out and setting: under `NS(=O)(=O)c1ccc(CNC(=O)CN2CCN(Cc3ccc4c(c3)OCO4)CC2)cc1` stands 1600 nM; under `NS(=O)(=O)c1ccc(CNC(=O)CCN2CCN(Cc3ccccc3)CC2)cc1`, 116 nM.
As to `NS(=O)(=O)c1ccc(CNC(=O)CN2CCN(c3ccccn3)CC2)cc1`, the Ki was 1560 nM.
On the same count and under the same terms, under `NS(=O)(=O)c1ccc(CNC(=O)CCN2CCN(c3ccc(F)cc3)CC2)cc1` stands 115 nM.
In the case of `NS(=O)(=O)c1ccc(CNC(=O)CN2CCN(c3ccc(C(F)(F)F)cc3)CC2)cc1`, the Ki came out at 1770 nM.
Still for that read-out and setting: under `NS(=O)(=O)c1ccc(CNC(=O)CCN2CCN(C(c3ccccc3)c3ccccc3)CC2)cc1` stands 890 nM.
The same measure, in the same setting: under `NS(=O)(=O)c1ccc(CNC(=O)CCN2CCN(c3ccc(Cl)cc3)CC2)cc1` stands 117 nM; under `NS(=O)(=O)c1ccc(CNC(=O)CCN2CCN(c3ccc(C(F)(F)F)cc3)CC2)cc1`, 137 nM; under `NS(=O)(=O)c1ccc(CNC(=O)CN2CCN(c3ccccc3)CC2)cc1`, 396 nM.
For `NS(=O)(=O)c1ccc(CNC(=O)CCN2CCN(C(c3ccc(F)cc3)c3ccc(F)cc3)CC2)cc1`, the Ki was found to be 98 nM.
In the case of `Cc1ccc(N2CCN(CCC(=O)NCc3ccc(S(N)(=O)=O)cc3)CC2)cc1`, the Ki was found to be 78.9 nM.
Turning to `Cc1ccc(N2CCN(CC(=O)NCc3ccc(S(N)(=O)=O)cc3)CC2)cc1`, the Ki was 1530 nM.
Same read-out and setting: under `NS(=O)(=O)c1ccc(CNC(=O)CCN2CCN(c3ncccn3)CC2)cc1` stands 455 nM.
Regarding `NS(=O)(=O)c1ccc(CNC(=O)CN2CCN(c3ccc(F)cc3)CC2)cc1`, the Ki was found to be 228 nM.
On the same count and under the same terms, to `NS(=O)(=O)c1ccc(CNC(=O)CN2CCN(C(c3ccc(F)cc3)c3ccc(F)cc3)CC2)cc1` belongs 2440 nM; to `NS(=O)(=O)c1ccc(CNC(=O)CN2CCN(c3ncccn3)CC2)cc1`, 2230 nM.
Take `COc1ccc(N2CCN(CCC(=O)NCc3ccc(S(N)(=O)=O)cc3)CC2)cc1`: the Ki stood at 136 nM.
The same measure, in the same setting: under `NS(=O)(=O)c1ccc(CNC(=O)CN2CCN(Cc3ccccc3)CC2)cc1` stands 220 nM; under `NS(=O)(=O)c1ccc(CNC(=O)CCN2CCN(c3ccccc3)CC2)cc1`, 23.7 nM.

Another test has as its system Mus musculus. Put plainly: Anticonvulsant activity in Swiss Albino mouse assessed as protection against seizure at 100 mg/kg, ip measured after 0.5 hrs by sc-PTZ seizure test relative to control. Format: functional.
Settings: not given
For `NS(=O)(=O)c1ccc(CNC(=O)CN2CCN(C(=O)OCc3ccccc3)CC2)cc1`, the Activity is reported as 50%.
Turning to `NS(=O)(=O)c1ccc(CNC(=O)CN2CCN(c3ncccn3)CC2)cc1`, the Activity was 50%.

The next test has as its system Mus musculus. Kind of test: Anticonvulsant activity in Swiss Albino mouse model of maximal electroshock-induced seizure assessed as protection against seizure by measuring suppression of hind limb extension at 30 mg/kg, ip pretreated for 30 mins before seizure stimulation and measured after 3 hrs by MES test relative to control. Format: functional. The note with it: time 3.5 hrs. On the technique in general: In the maximal electroshock model the usual endpoint is tonic extension of the hind limbs.
For the compound `NS(=O)(=O)c1ccc(CNC(=O)CN2CCN(C(=O)OCc3ccccc3)CC2)cc1`, the Activity worked out at 67%.
The same measure, in the same setting: to `NS(=O)(=O)c1ccc(CNC(=O)CN2CCN(c3ncccn3)CC2)cc1` belongs 67%.

For a further test, the system named is Mus musculus. Kind of test: Anticonvulsant activity in Swiss Albino mouse model of maximal electroshock-induced seizure assessed as protection against seizure by measuring suppression of hind limb extension at 30 mg/kg, ip pretreated for 30 mins before seizure stimulation and measured after 0.5 hrs by MES test relative to control. Format: functional. The note with it: time 60 min, 1 h.
Regarding `NS(=O)(=O)c1ccc(CNC(=O)CN2CCN(C(=O)OCc3ccccc3)CC2)cc1`, the Activity is listed as 17%.
Still for that read-out and setting: under `NS(=O)(=O)c1ccc(CNC(=O)CN2CCN(c3ncccn3)CC2)cc1` stands 50%.

The next test deals with Mus musculus. Put plainly: Anticonvulsant activity in Swiss Albino mouse model of maximal electroshock-induced seizure assessed as protection against seizure by measuring suppression of hind limb extension at 100 mg/kg, ip pretreated for 30 mins before seizure stimulation and measured after 0.5 hrs by MES test relative to control. Format: functional. Conditions: time 60 min, 1 h.
As for `NS(=O)(=O)c1ccc(CNC(=O)CN2CCN(C(=O)OCc3ccccc3)CC2)cc1`, the Activity amounted to 67%.
On the same count and under the same terms, to `NS(=O)(=O)c1ccc(CNC(=O)CN2CCN(c3ncccn3)CC2)cc1` belongs 50%.

The next test has as its system Mus musculus. Put plainly: Anticonvulsant activity in Swiss Albino mouse assessed as protection against seizure at 100 mg/kg, ip measured after 3 hrs by sc-PTZ seizure test relative to control. Format: functional.
Settings: not given
Consider `NS(=O)(=O)c1ccc(CNC(=O)CN2CCN(C(=O)OCc3ccccc3)CC2)cc1`, for which the Activity is 33%.
As to `NS(=O)(=O)c1ccc(CNC(=O)CN2CCN(c3ncccn3)CC2)cc1`, the Activity was determined as 50%.

For a further test, the system named is Mus musculus. Put plainly: Anticonvulsant activity in Swiss Albino mouse assessed as protection against seizure at 30 mg/kg, ip measured after 3 hrs by sc-PTZ seizure test relative to control. Format: functional.
Settings: not given
With `NS(=O)(=O)c1ccc(CNC(=O)CN2CCN(C(=O)OCc3ccccc3)CC2)cc1`, the Activity came to 17%.
As to `NS(=O)(=O)c1ccc(CNC(=O)CN2CCN(c3ncccn3)CC2)cc1`, the Activity worked out at 50%.

Another test relates to Mus musculus. Put plainly: Anticonvulsant activity in Swiss Albino mouse model of maximal electroshock-induced seizure assessed as protection against seizure by measuring suppression of hind limb extension at 100 mg/kg, ip pretreated for 30 mins before seizure stimulation and measured after 3 hrs by MES test relative to control. Format: functional. The note with it: 0.5 h.
`NS(=O)(=O)c1ccc(CNC(=O)CN2CCN(C(=O)OCc3ccccc3)CC2)cc1`: the Activity amounted to 50%.
Same read-out and setting: under `NS(=O)(=O)c1ccc(CNC(=O)CN2CCN(c3ncccn3)CC2)cc1` stands 83%.
